We go through six compounds from US20210038515A1 (Azurity Pharmaceuticals, Inc., priority 2014, published 2021).

The nature of one data set: in vitro. Particulars: human, Caco-2. How it is done:
Caco-2 cells are used as an in vitro model of the human intestinal epithelium and permit assessment of the intestinal permeability of potential drugs. Vancomycin is added to either the apical or basolateral side of a confluent monolayer of Caco-2 cells and permeability is measured by monitoring the appearance of the Vancomycin on the opposite side of the monolayer using LC-MS/MS. When performing a bi-directional assay, the efflux ratio (ER) is calculated from the ratio of B->A and A->B permeabilities.
The permeability measure of vancomycin in the apical to basolateral (A->B) and basolateral to apical (B->A) direction across Caco-2 cells, and to determine the efflux ratio.

A further data set deals with Clostridium difficile. As to the kind of experiment: Agar dilution MIC of vancomycin preparations (Sigma, Cutis), diluent, Na benzoate and Na citrate. Type of data set: cell-based. The note with it: tested separately at concentrations exceeding those present in the diluent. How it is done:
Introduction: The purpose of the study was to compare the MICs obtained with the formulation of vancomycin HCL of the invention (Cutis) to formulations obtained using a vancomycin HCL reference standard powder obtained from Sigma. The Example also involves the analysis of a solution or diluent to determine if it has antimicrobial activity at the concentrations present in the agar dilution test.
The C. difficile were tested by agar dilution according to the procedures in the Clinical and Laboratory Standards Institute. 2012. Methods for antimicrobial susceptibility testing of anaerobic bacteria; approved standard-seventh edition.
Other anaerobic organisms included clinical isolates of Bifidobacterium adolescentis and Bacteroides fragilis. Clostridium difficile ATCC 700057 was included as a quality control strain.
The C. difficile isolates were recovered from patients with CDI during the past two years and stored at −70° C. in 20% skim milk. Ribotyping was performed by another reference laboratory. The strains were taken from the freezer and subcultured at least twice to ensure purity and good growth.
On the day of testing, they were suspended in Brucella broth to the turbidity of the 0.5 McFarland standard for testing.
Stock solution of the Sigma vancomycin was prepared in water and stored at −70° C. On the day of testing, it was thawed and further diluted in water to obtain the desired range of 16-0.125 μg/ml. The Cutis vancomycin (25 mg/ml) was reconstituted on the day of testing and further diluted for a final range of 16-0.125 μg/ml in the test. The antimicrobials were added to molten Brucella agar supplemented with vitamin K and hemin to prepare the plates. Drug-free growth controls were included for testing before and after each set of plates. All testing was done in triplicate.
The organisms were pipetted into the wells of the Steers replicator head and applied to the plates with the multi-pronged replicator. The final concentration of organisms was ˜10^5 CFU/spot.
The plates were incubated in the anaerobic chamber incubator for 44 h and examined for growth.
The Cutis diluent comprises: water, about 0.12% (w/v) citric acid (anhydrous), 0.2% (w/v) sucralose, about 0.05% (w/v) artificial grape flavor, 0.1% (w/v) sodium benzoate, about 0.0002% (w/v) D&C Yellow No. 10 and about 0.000038% (w/v) FD&C Red No. 40.

The subject of a further data set is C. difficile. As to the kind of experiment: MIC by reference agar dilution method (CLSI M11-A8) of stored vancomycin preparations. The format is cell-based, Clostridium difficile. Particulars: for MIC, average of triplicate: Fresh.
Data set [1] has as its system Staphylococcus aureus ATCC 29213. Briefly: MIC by reference agar dilution method (CLSI M11-A8), quality control strain. The format is cell-based. Particulars: Fresh. The protocol: The vancomycin hydrochloride solution of the invention and the IV solution were reconstituted to a concentration of 25 mg/ml. […] The MICs were determined by the reference agar dilution method (CLSI M11-A8). All serial two-fold dilutions were prepared on the same day and added to molten agar to prepare plates.
The in vitro activity was tested for three different preparations of vancomycin freshly reconstituted, and stored at ambient and at refrigerated temperatures. The C. difficile strains were selected to represent the most frequently encountered ribotypes.
Plates were prepared by adding 1 ml of lysed sheep blood and two mls of the twofold dilutions of the vancomycin preparations to molten agar. Plates were mixed, poured and allowed to harden. Suspensions of the organisms were applied to the plates using a Steers replicating device that delivered approximately 10^5 cfu/spot. Each preparation was tested in triplicate. Plates were incubated at 37° C. for 48 h.
Plates were examined for growth.

For data set [2] the following is noted: orally-administered; cited from earlier work.

Consider `COCCc1ccc(OCC(O)CNC(C)C)cc1` (stereo not shown) [Metoprolol], for which, in the data set “in vitro”, the apical-to-basolateral permeability (Papp A→B) was found to be 11.6 ×10⁻⁶ cm/s and the apparent permeability from basolateral to apical (Papp B→A) came out at 30 ×10⁻⁶ cm/s.

For the compound `O=C([O-])c1ccccc1.[Na+]` [Na benzoate], the growth inhibition result with Clostridium difficile is reported as “no inhibition”.

On to `O=C([O-])CC(O)(CC(=O)[O-])C(=O)[O-].[Na+].[Na+].[Na+]` [Na citrate], for which the growth inhibition entry in the data set on Clostridium difficile was “no inhibition”.

Turning to `CNC(=C[N+](=O)[O-])NCCSCc1ccc(CN(C)C)o1` [Ranitidine], in “in vitro”, the apparent permeability from apical to basolateral (Papp A→B) turned out to be 0.3 ×10⁻⁶ cm/s and the apparent permeability from basolateral to apical (Papp B→A) stood at 1.5 ×10⁻⁶ cm/s.

For the compound `CN[C@H](CC(C)C)C(=O)N[C@H]1C(=O)N[C@@H](CC(N)=O)C(=O)N[C@H]2C(=O)N[C@H]3C(=O)N[C@H](C(=O)N[C@H](C(=O)O)c4cc(O)cc(O)c4-c4cc3ccc4O)[C@H](O)c3ccc(c(Cl)c3)Oc3cc2cc(c3O[C@@H]2O[C@H](CO)[C@@H](O)[C@H](O)[C@H]2O[C@H]2C[C@](C)(N)[C@H](O)[C@H](C)O2)Oc2ccc(cc2Cl)[C@H]1O.Cl` [Reference standard], the “MIC, average of triplicate” value against C. difficile (ATCC 7000057 QC (C. difficile)) stood at 1 µg/mL; against C. difficile (RMA 24504, ribotype 027), 1 µg/mL; against C. difficile (RMA 24510, ribotype 027) it was 1 µg/mL; in the data set with C. difficile (RMA 24519, ribotype 027), 1 µg/mL; against C. difficile (RMA 24527, ribotype 014), 1 µg/mL; in the data set with C. difficile (RMA 24529, ribotype 014) it was 1 µg/mL. Besides, the “MIC, average of triplicate” value was 1 µg/mL in the data set on C. difficile (RMA 24541, ribotype 020); 1 µg/mL in the data set on C. difficile (RMA 24543, ribotype 020); 1 µg/mL against C. difficile (RMA 24547, ribotype 014); 1 µg/mL against C. difficile (RMA 24561, ribotype 078); 1 µg/mL against C. difficile (RMA 24567, ribotype 020); 1 µg/mL with C. difficile (RMA 24575, ribotype 078). For the same compound, the “MIC, average of triplicate” value turned out to be 4 µg/mL in the data set on C. difficile (RMA 24594, ribotype 106); 2 µg/mL with C. difficile (RMA 24601, ribotype 106); 1 µg/mL against C. difficile (RMA 24605, ribotype 002); 1 µg/mL in the data set with C. difficile (RMA 24607, ribotype 106); 1 µg/mL against C. difficile (RMA 24608, ribotype 002); 2 µg/mL in the data set on C. difficile (RMA 24615, ribotype 005). Besides, the “MIC, average of triplicate” value in the data set with C. difficile (RMA 24628, ribotype 012) is 1 µg/mL; against C. difficile (RMA 24641, ribotype 001/072), 1 µg/mL; against C. difficile (RMA 24643, ribotype 001/072), 1 µg/mL; against C. difficile (RMA 24646, ribotype 001/072) it was 1 µg/mL; against C. difficile (RMA 24655, ribotype 005), 2 µg/mL; in the data set with C. difficile (RMA 24678, ribotype 012), 4 µg/mL. For the same compound, the “MIC, average of triplicate” value in the data set with C. difficile (RMA 24683, ribotype 027) is 2 µg/mL; against C. difficile (RMA 24690, ribotype 027) it was 4 µg/mL; in data set [1] (ATCC 29213 SA QC (S. aureus)) it was 2 µg/mL. The “Average MIC (geometric mean, all 25 strains)” value in the data set with C. difficile (reference standard powder stock solution stored at −70 C) is 1.5 µg/mL. The “vancomycin MIC from triplicate test, best of 3 values” in data set [1] (ATCC 29213 SA QC) worked out at 2 µg/mL.

As to `CN[C@H](CC(C)C)C(=O)N[C@H]1C(=O)N[C@@H](CC(N)=O)C(=O)N[C@H]2C(=O)N[C@H]3C(=O)N[C@H](C(=O)N[C@H](C(=O)O)c4cc(O)cc(O)c4-c4cc3ccc4O)[C@H](O)c3ccc(c(Cl)c3)Oc3cc2cc(c3O[C@@H]2O[C@H](CO)[C@@H](O)[C@H](O)[C@H]2O[C@H]2C[C@](C)(N)[C@H](O)[C@H](C)O2)Oc2ccc(cc2Cl)[C@H]1O` [vancomycin], in data set [2], the absorption result is reported as “cannot be absorbed” and the “concentrations in the colon” value was 500 to 1000 µg/mL.
